Reference: ChEMBL document CHEMBL1201862, “PubChem BioAssay data set” (2004)
The source made the active and inactive calls.

Experiments:
[1] = Luminescence Cell-Based Dose Response HTS to Identify Inhibitors of 5'UTR Stem-Loop Driven Prion Protein mRNA Translation in H4 Neuroglioblastoma Cells. [Related pubchem assays: 1827 (Project Summary), 1813 (Primary HTS)]; assay type: functional
[2] = inhibitors of firefly luciferase expression or activity, dose response, H4 neuroglioma cells, luminescence (AID 1990); assay type: functional, cell-based
[3] = inhibitors of SNCA 5'UTR-driven reporter translation, confirmation, H4 neuroglioma cells, luminescence (AID 1988); assay type: functional, cell-based
[4] = target: T1, Rac GTPase-activating protein 1 (Homo sapiens, UniProt Q9H0H5); assay: MgcRacGAP GTPase-activating activity inhibitors, confirmation, biochemical, ADP Hunter fluorescence, primary and confirmatory (AID 624330); assay type: functional
T1 sequence (Q9H0H5 whole entry): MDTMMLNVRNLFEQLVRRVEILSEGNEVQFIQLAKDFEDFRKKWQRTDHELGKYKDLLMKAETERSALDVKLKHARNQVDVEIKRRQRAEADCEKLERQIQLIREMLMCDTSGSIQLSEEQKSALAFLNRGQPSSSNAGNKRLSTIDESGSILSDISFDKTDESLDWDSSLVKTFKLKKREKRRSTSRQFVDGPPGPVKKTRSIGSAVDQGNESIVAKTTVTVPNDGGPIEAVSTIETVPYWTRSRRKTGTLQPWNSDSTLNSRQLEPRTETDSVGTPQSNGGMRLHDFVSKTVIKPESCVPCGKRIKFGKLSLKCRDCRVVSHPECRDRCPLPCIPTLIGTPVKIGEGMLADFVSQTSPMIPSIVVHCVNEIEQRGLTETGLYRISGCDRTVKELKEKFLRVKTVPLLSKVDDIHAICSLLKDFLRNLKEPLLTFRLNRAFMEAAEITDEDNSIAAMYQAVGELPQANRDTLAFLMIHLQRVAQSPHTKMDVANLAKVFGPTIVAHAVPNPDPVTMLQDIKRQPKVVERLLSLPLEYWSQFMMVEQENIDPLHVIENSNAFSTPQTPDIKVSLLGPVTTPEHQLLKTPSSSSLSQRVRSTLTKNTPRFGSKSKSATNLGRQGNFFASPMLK

Large T antigen = Large T antigen (Simian virus 40, UniProt P03070); assay type: functional, Betapolyomavirus macacae;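 note: Confirmatory-stage PubChem screen for compounds that inhibit SV40 T antigen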
Chain of Large T antigen (P03070 whole entry): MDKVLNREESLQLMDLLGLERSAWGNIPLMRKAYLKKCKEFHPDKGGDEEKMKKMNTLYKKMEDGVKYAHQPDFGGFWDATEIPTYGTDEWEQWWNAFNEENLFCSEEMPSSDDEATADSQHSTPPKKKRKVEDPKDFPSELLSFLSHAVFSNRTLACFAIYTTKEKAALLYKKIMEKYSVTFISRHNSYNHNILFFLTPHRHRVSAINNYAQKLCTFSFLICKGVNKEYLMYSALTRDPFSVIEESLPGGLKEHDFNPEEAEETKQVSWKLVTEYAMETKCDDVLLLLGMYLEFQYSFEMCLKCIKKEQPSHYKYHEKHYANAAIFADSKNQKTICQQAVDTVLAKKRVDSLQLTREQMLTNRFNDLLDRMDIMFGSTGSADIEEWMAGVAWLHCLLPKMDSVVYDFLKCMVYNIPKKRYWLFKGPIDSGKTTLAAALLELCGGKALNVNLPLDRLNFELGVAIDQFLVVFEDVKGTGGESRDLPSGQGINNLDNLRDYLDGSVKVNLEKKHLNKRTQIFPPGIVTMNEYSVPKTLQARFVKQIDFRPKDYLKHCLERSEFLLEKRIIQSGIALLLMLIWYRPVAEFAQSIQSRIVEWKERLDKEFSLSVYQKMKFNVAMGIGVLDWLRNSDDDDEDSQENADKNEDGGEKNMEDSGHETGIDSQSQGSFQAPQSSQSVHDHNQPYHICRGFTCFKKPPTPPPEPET

Cytochrome P450 2D6 = Cytochrome P450 2D6 (Homo sapiens, UniProt P10635);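 note: CYP2D6 member of a cytochrome P450 panel assay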
Chain of Cytochrome P450 2D6 (P10635 whole entry): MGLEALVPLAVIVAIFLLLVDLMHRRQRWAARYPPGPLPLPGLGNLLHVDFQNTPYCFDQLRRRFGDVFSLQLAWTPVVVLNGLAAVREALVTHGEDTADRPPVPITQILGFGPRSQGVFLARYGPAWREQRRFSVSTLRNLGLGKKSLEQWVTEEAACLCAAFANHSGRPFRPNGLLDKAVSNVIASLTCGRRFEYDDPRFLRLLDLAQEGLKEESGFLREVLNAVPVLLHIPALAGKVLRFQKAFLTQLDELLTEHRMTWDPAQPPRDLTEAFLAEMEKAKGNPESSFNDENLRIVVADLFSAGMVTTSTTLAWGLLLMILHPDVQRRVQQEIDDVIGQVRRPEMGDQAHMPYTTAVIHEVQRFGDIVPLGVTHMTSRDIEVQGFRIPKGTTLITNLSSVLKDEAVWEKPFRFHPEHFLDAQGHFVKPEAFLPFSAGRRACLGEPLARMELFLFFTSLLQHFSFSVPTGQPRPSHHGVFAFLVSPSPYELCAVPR

Cytochrome P450 1A2 = target: T2, Cytochrome P450 1A2 (Homo sapiens, UniProt P05177);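 note: PubChem cytochrome P450 panel assay, CYP1A2 panel member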
T2 sequence (P05177 whole entry): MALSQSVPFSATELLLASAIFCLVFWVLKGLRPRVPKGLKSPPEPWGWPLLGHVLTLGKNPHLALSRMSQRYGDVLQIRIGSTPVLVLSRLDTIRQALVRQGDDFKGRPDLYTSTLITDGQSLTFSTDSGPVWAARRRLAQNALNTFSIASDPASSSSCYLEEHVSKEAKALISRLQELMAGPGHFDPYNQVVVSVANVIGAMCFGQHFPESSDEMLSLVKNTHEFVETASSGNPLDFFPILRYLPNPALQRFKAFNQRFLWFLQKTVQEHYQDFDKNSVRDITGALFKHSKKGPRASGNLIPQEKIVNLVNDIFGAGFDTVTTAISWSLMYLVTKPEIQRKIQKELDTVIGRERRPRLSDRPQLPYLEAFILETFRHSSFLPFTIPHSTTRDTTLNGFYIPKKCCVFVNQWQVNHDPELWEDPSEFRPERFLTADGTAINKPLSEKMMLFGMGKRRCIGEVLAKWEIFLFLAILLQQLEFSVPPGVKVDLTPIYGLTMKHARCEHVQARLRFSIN

[5] = target: T3, Corticotropin-releasing factor receptor 2/Corticotropin-releasing factor-binding protein (Homo sapiens, UniProt P24387+Q13324); assay: activators of CRF receptor 2 with binding protein – uHTS hits, confirmation (AID 602473); assay type: functional; conditions: read-out: EC50_Mean
T3 sequence (Q13324 whole entry): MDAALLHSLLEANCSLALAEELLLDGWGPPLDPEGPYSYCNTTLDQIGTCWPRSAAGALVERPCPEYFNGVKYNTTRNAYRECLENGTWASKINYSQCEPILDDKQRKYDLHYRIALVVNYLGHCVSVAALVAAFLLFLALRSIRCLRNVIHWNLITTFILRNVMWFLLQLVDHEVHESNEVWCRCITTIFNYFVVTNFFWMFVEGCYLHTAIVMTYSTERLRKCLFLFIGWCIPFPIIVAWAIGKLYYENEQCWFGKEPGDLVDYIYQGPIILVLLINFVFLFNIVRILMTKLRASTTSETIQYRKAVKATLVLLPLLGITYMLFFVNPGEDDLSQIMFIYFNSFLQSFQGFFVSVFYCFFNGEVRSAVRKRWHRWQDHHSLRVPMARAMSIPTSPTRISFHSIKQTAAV
T3 sequence (P24387 whole entry): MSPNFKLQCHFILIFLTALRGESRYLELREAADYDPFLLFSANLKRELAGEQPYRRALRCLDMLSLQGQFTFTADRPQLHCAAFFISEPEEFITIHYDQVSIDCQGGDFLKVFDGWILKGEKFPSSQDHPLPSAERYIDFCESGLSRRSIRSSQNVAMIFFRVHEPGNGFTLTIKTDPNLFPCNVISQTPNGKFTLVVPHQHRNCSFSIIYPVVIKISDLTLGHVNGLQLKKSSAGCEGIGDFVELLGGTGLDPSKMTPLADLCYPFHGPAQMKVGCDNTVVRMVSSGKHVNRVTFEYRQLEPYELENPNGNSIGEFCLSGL

[6] = target: T3, Corticotropin-releasing factor receptor 2/Corticotropin-releasing factor-binding protein; assay: Dose Response confirmation of uHTS hits for small molecule antagonists of the CRF-binding protein and CRF-R2 receptor complex.; assay type: functional; conditions: read-out: IC50_Mean
[7] = cytotoxicity toward NIH3T3 fibroblasts, dose response, counter-screen, cell-based, ATP luminescence, mouse fibroblasts (AID 2010); assay type: functional;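 note: cells exposed to compound for about 90 hours before reading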
[8] = control 3'UTR Renilla luciferase suppression, dose response, counter-screen for Shn3 inhibitor project, cell-based, Clone20-Shn3RL, cherry-picked (AID 624133); assay type: functional
[9] = inhibitors of intracellular T. cruzi replication, confirmation, NIH3T3 host cells, beta-gal luminescence (AID 2044); assay type: functional, cell-based;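 note: intracellular parasites grown in NIH/3T3 mouse fibroblasts as host cells; luminescent beta-galactosidase reporter signal from transgenic T. cruzi replicating inside host cells; inhibitors lower the luminescence signal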
[10] = Shn3 3'UTR reporter inhibitors, dose response, cell-based, Clone20 osteoblasts, firefly luciferase, cherry-picked (AID 624132); assay type: functional;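 note: firefly luciferase luminescence from reporter carrying the Shn3 3'UTR in osteoblasts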
[11] = Luminescence Cell-Based Dose Retest to Confirm Inhibitors of Cancer Stem Cells. [Related pubchem assays (depositor defined):AID2717, AID2721]; assay type: functional; conditions: Homo sapiens
[12] = target: FAD-linked sulfhydryl oxidase ALR (Homo sapiens, UniProt P55789); assay: inhibitors of human ALR sulfhydryl oxidase, dose response, biochemical, H2O2 detection, luminescence, cherry-pick (AID 493248)
Chain of FAD-linked sulfhydryl oxidase ALR (P55789 whole entry): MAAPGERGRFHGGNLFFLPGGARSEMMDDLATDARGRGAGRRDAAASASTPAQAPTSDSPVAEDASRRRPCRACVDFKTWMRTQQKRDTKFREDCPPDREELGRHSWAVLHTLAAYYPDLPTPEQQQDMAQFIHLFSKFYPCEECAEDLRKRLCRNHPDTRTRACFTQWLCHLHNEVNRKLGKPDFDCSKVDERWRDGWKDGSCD

Cytochrome P450 2C19 = Cytochrome P450 2C19 (Homo sapiens, UniProt P33261); assay: Cytochrome panel assay with activity outcomes. Panel member name: p450-cyp2c19 Compounds with AC50 equal or less than 10 uM are considered active; assay type: functional; conditions: read-out: AC50
Chain of Cytochrome P450 2C19 (P33261 whole entry): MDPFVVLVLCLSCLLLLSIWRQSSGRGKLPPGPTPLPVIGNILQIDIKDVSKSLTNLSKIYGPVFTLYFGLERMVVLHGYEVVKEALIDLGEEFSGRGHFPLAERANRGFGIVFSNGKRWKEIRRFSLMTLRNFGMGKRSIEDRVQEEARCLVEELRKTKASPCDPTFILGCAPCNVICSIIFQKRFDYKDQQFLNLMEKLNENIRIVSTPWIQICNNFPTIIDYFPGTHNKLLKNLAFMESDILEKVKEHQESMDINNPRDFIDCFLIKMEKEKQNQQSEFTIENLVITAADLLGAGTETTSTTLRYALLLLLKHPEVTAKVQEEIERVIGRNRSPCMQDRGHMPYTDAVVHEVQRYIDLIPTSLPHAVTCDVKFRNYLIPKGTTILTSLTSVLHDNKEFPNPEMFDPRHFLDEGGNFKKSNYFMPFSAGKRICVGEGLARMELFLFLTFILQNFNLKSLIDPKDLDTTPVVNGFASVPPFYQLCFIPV

Cytochrome P450 3A4 = Cytochrome P450 3A4 (Homo sapiens, UniProt P08684);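 note: CYP3A4 tested as one member of a cytochrome P450 panel screen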
Chain of Cytochrome P450 3A4 (P08684 whole entry): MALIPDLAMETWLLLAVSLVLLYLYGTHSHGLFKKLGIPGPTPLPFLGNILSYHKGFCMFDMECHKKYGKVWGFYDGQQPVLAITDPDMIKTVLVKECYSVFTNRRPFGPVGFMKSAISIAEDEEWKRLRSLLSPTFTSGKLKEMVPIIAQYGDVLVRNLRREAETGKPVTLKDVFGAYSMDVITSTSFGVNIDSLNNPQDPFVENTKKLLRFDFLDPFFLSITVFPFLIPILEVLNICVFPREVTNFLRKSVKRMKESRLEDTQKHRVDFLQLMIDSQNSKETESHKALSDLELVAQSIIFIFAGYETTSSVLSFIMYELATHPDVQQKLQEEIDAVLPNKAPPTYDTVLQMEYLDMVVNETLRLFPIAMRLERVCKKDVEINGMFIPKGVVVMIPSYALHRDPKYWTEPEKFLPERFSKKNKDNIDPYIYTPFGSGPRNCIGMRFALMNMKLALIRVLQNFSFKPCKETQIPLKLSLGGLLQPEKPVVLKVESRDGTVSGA

COc1ccc(NC(=O)CNC(=O)Cn2c(C)cc3ccccc3c2=O)c(OC)c1
EC50 [1]: > 120 µM (not active)
EC50 [2]: > 120 µM (not active)
EC50 [3]: > 120 µM (not active)

CN1C=CC=C/C1=C(\C#N)c1nc2ccccc2[nH]1
IC50 [4]: 46.4 µM (active)
IC50 (Large T antigen): 7.7 µM (active)

O=C(NCCN1CCOCC1)c1csc2c1CCCCC2
AC50 (Cytochrome P450 2D6): 17.8 µM (inconclusive)
AC50 (Cytochrome P450 1A2): 20 µM (inconclusive)

COc1ccc(NC(=O)Nc2nnc(C(C)(C)C)s2)cc1
EC50 [5]: > 53 µM (inactive)
IC50 [6]: > 47.1 µM (inactive)

COC(=O)c1cccc(NC(=O)NC(=O)c2ccccc2Cl)c1
EC50 [1]: 2.84 µM (active)
EC50 [2]: 2 µM (active)
EC50 [3]: 7.75 µM (active)

COc1ccc2c(c1)c(CC(=O)Nc1cc(C)ccc1C)c(C)n2C(=O)c1ccc(Cl)cc1
EC50 [7]: > 60 µM (not active)
AC50 [8]: 13.1 µM (active)
EC50 [5]: > 53 µM (inactive)
EC50 [9]: 0.938 µM (active)
AC50 [10]: 5.69 µM (active)

COC(=O)c1c(NC(=O)COc2ccc(Cl)cc2Cl)sc2c1CC(C)(C)NC2(C)C
EC50 [1]: > 120 µM (not active)
EC50 [2]: 8.93 µM (active)
EC50 [3]: 9.53 µM (active)
AC50 [11]: 5.58 µM (active)

Nc1ccc2nc(NC(=O)C3CCCCC3)sc2c1
AC50 [12]: 0.957 µM (active)

COc1ccc(OC)c(C(=O)N2CCC(n3nccc3NC(=O)CC(C)C)CC2)c1
EC50 [1]: > 120 µM (not active)
EC50 [2]: > 120 µM (not active)
EC50 [3]: > 120 µM (not active)

CC(NC(=O)C(=O)N1CCCCC1)C(c1cccs1)N1CCN(c2ccc(F)cc2)CC1 (stereo not drawn)
AC50 [12]: 1.44 µM (active)

Cc1ccccc1NS(=O)(=O)c1ccc2ncc(C(=O)NCCCN3CCOCC3)c(O)c2c1
AC50 (Cytochrome P450 2C19): 25.1 µM (inconclusive)
AC50 (Cytochrome P450 2D6): 20 µM (inconclusive)
AC50 (Cytochrome P450 1A2): 39.8 µM (inconclusive)

c1cc(CN2CCCC3(CCNCC3)C2)ccn1
AC50 (Cytochrome P450 2C19): 25.1 µM (inconclusive)
AC50 (Cytochrome P450 2D6): 25.1 µM (inconclusive)

CC(=O)Nc1ccc(S(=O)(=O)N(Cc2cc3ccc(C)cc3nc2O)CC2CCCO2)cc1 (stereo not drawn)
EC50 [1]: 60.6 µM (active)
EC50 [2]: 16.8 µM (active)
EC50 [3]: 11.8 µM (active)

Cc1[nH]c2ccc(C(=O)N3CCCCC3)cc2c1C
AC50 [12]: 2.77 µM (active)

CC(=O)N1CCC(=NNC(=O)c2cccs2)CC1
AC50 [12]: 13.5 µM (active)

CCN(Cc1ccncc1)C(=O)c1cc(Br)cc(Br)c1O
AC50 [12]: 1.25 µM (active)

COc1ccc2nc(S)[nH]c2c1
AC50 [12]: 0.581 µM (active)

COc1ccc(Oc2nccc(-c3ccc(F)cc3)c2C#N)cc1
AC50 (Cytochrome P450 2D6): 0.00562 µM (inconclusive)
AC50 (Cytochrome P450 3A4): 12.6 µM (inconclusive)
AC50 (Cytochrome P450 1A2): 5.01 µM (inconclusive)

Cc1cccc(C(=O)Nc2nnc(S(=O)(=O)N(C)Cc3ccco3)s2)c1
AC50 [12]: 9.45 µM (active)

CN1Cc2cc(C(=O)c3ccccc3O)cnc2NC1=O
AC50 [12]: 6.59 µM (active)

CCCCCn1c(SCCCC)nc2c1c(=O)[nH]c(=O)n2C
EC50 [1]: > 120 µM (not active)
EC50 [2]: 17.1 µM (active)
EC50 [3]: > 60 µM (not active)

CCOc1ccccc1NC(=O)CCn1cccc1
EC50 [1]: > 120 µM (not active)
EC50 [2]: > 120 µM (not active)
EC50 [3]: > 120 µM (not active)

COc1ccc(N2CCC(CN=C(S)Nc3c(C)cc(C)cc3C)C2)cc1 (stereo not drawn)
IC50 (Large T antigen): 19.1 µM (active)

COC(=O)Cc1csc(N/C=C2/C(=O)N(c3cccc(C(F)(F)F)c3)C(=O)c3ccccc32)n1
EC50 [1]: > 120 µM (not active)
EC50 [2]: > 120 µM (not active)
EC50 [3]: 11.3 µM (active)

Sc1nccc(-c2cccs2)n1
AC50 [12]: 0.664 µM (active)

O=C(Nc1cc(F)ccc1F)N1CCN(c2ccnc3cc(Cl)ccc23)CC1
AC50 [8]: 10.2 µM (active)
AC50 [10]: 22.8 µM (active)

CCN(CC)c1ccc(NC(=O)C2CC(=O)N(Cc3ccccc3)C2)cc1 (stereo not drawn)
IC50 (Large T antigen): 14.5 µM (active)

O=C(/C=C/c1ccc(O)c(O)c1)O[C@@H]1C[C@](O)(C(=O)O)C[C@@H](O)[C@H]1O
IC50 (Large T antigen): 2.86 µM (active)

CCN(CC)c1ccc(NC(=O)C2=CC=CN3CCS(=O)(=O)N=C23)cc1
AC50 [12]: 0.295 µM (active)
IC50 [4]: 67 µM (active)

Cn1cccc1C(=O)N1CCC2(CCCN(C(c3ccccc3)c3ccccc3)C2)CC1
AC50 (Cytochrome P450 2C19): 39.8 µM (inconclusive)
AC50 (Cytochrome P450 2D6): 10 µM (inconclusive)
AC50 (Cytochrome P450 3A4): 6.31 µM (inconclusive)

COc1cc(C(=O)OCC(=O)NC2CCCCCC2)ccc1OCC(C)C
AC50 [8]: 35.9 µM (active)

Cc1[nH]n(C(N)=S)c(=O)c1/N=N/c1ccc(Cl)cc1Cl
AC50 [12]: 0.674 µM (active)

Cc1c(Br)c(O)c(Br)c(O)c1/C=N/n1c(S)nnc1-c1ccccc1
AC50 [12]: 4.15 µM (active)

CN(C)/C=N/C1=NN(c2cccc(C(F)(F)F)c2)CC1
AC50 [12]: 1.5 µM (active)
IC50 [4]: 38.3 µM (active)
IC50 (Large T antigen): 13 µM (active)

COc1cc(/C=N/NC(=O)c2c(-c3ccccc3)noc2C)ccc1O
IC50 [4]: 50.2 µM (active)
IC50 (Large T antigen): 15 µM (active)

CN1CCN(/N=C/c2ccc(N(C)c3ccccc3)cc2)CC1
AC50 [12]: 1.9 µM (active)

CCN(CC)c1ccc(/C=N/O)cc1
IC50 [4]: 20.2 µM (active)
IC50 (Large T antigen): 6.52 µM (active)

COc1ccc(C(=O)/C=C(\C)Nc2ccc(NC(C)=O)cc2)cc1
IC50 (Large T antigen): 53.3 µM (active)

COc1cc2c(cc1OC)C(c1ccc(Br)cc1)NCC2 (stereo not drawn)
EC50 [7]: > 60 µM (not active)
EC50 [1]: > 120 µM (not active)
EC50 [2]: > 120 µM (not active)
EC50 [9]: > 60 µM (not active)
EC50 [3]: > 120 µM (not active)

CC(C)n1cc(CN2CCCC(C(=O)Nc3cccc(-c4cc5ccccc5[nH]4)c3)C2)cn1 (stereo not drawn)
EC50 [1]: > 120 µM (not active)
EC50 [2]: 14.5 µM (active)
EC50 [3]: 30.6 µM (active)
